The format of data set [1] is biochemical. The method, then:
Test 5 is a […] test wherein 0.1 ml aliquots of 10^−4 M methanolic solutions of the tested products are added to test tubes containing a solution formed by 0.2 ml of 2 mM deoxyribose, 0.4 ml of phosphate buffer pH 7.4 100 mM and 0.1 ml of 1 mM Fe^II(NH4)2(SO4)2 in 2 mM HCl. The test tubes are then maintained at 37° C. for one hour. Then in each test tube 0.5 ml of a 2.8% solution in trichloroacetic acid water and 0.5 ml of an aqueous 0.1 M solution of thiobarbituric acid are added, in the order. A reference blank is formed by adding to a test tube containing only the above described aqueous solution of reactants 0.1 ml of methanol. […] A pink coloration is developed the intensity of which is proportional to the quantity of deoxyribose undergone to radical oxidative degradation. The solutions are cooled at room temperature and their absorbances are read at 532 nm against the blank. The inhibition induced by the precursor of B or B1 or C=-Tc-Y—H in the confront of radical production by Fe^II is determined by means of the following formula: (1−As/Ac)×100 wherein As and Ac are respectively the absorbance values of the solution containing the tested compound+the iron salt and that of the solution containing only the iron salt, the compound meets test 5 when the inhibition percentage of radical production as above defined from the precursor of B is higher than or equal to 50%. […]

The next data set deals with gastrointestinal mucosa. The settings on record: male, Wistar, rat, in vivo, 6 h. The method, then: Gastric lesions induced by administration of the compounds of the invention in the confront of the corresponding drug precursor.
The animals have been sacrificed 6 hours after the administration. The gastrointestinal mucosa has been removed and inspected. The incidence of the gastrointestinal damage has been evaluated as described in experiment F1.

Data set [2] deals with human endothelial cells of the umbilical vein. The data set can be described thus: Experiment F6: apoptosis (DNA fragmentation) induced in endothelial cells by hydrogen peroxide. The data set is classed as cell-based. The following applies: Endothelial cell, products 100 mmoles/l, hydrogen peroxide 200 mmoles/l, 18 hours, read-out: Apoptosis % (respect to the controls treated only with CIP). From the text:
It has been Evaluated the Activity of Some of the Compounds Object of the Present Invention and of the Corresponding Precursor Drugs in Inhibiting DNA Degradation (Apoptosis) in Endothelial Cells Exposed to the Action of Hydrogen Peroxide (HP)
Hydrogen peroxide is a mild oxidant and is considered as an essential mediating agent in pathologies associated with oxidative stress (B. Halliwell, J. Gutteridge “Free Radicals in Biology and Medicine”, page 416, 1993). Therefore the pharmacological activity of compounds to be used under oxidative stress conditions is evaluated through their capability of neutralizing the cytolesive effects of the hydrogen peroxide (B. Halliwell, J. Gutteridge “Free Radicals in Biology and Medicine”, page 416, 1993).
The method described by Herman et Al. (Herman C., Zeiner M. A., Dimmeler S., Arterioscler. Thromb. Vasc. Biol. 17 (12), 3588-82, 1997).
Human endothelial cells of the umbilical vein are prepared according to a standard method. Fresh umbilical veins, just removed, are filled with a solution of collagenase at 0.1% and incubated at 37° C. for 5 minutes.
Subsequently the veins are perfused with medium M 199 (GIBCO, Grand Island, N.Y.) pH 7.4 containing 20% of human serum. The cells are collected from the perfusate by centrifugation at 800 rpm and harvested in culture flasks T-75, pretreated with human fibronectin. […]

Data set [3] shares this test system. The experiment in a line: Test 2 (CIP): apoptosis (DNA fragmentation) induced by cumene hydroperoxide in endothelial cells. Type of data set: cell-based. The following applies: drug 10^-4 M; CIP 5 mM. The method, then: Test 2 (CIP): Protection parameter of endothelial cell against the oxidative stress induced by cumene hydroperoxide (CIP).
Human endothelial cells of the umbilical vein are prepared according to an usual standard procedure. Fresh umbilical veins are filled with a 0.1% by weight collagenase solution and incubated at 37° C. for 5 minutes.
The cells are collected from the perfusate by centrifugation and harvested in culture flasks T-75, pretreated with human fibronectin. The cells are then harvested in the same medium, further added with 10 ng/ml of bovine hypothalamic growth factor. When the cells of the primary cell culture (i.e. that directly obtained from ex-vivo) form a single layer of confluent cells (about 8,000,000 cells/flask), the culture is stopped and the layers washed and trypsinized. The cellular suspensions are transferred into the wells of a cell culture plate having 24 wells, half of which is then additioned with the same culture medium containing the drug at a 10^−4M concentration, and harvested in a thermostat at 37° C. at a constant moisture. Only the cells coming from said first sub-cultures are used for the experiments with cumene hydroperoxide (CIP).
Before starting the test, the cellular culture medium is removed and the cellular layers are carefully washed with a physiologic solution at a temperature of 37° C. The wells of the culture plate are then incubated for one hour with CIP at a 5 mM concentration in the culture medium. […] 5 replicates for each sample are carried out.
Human endothelial cells of the umbilical vein are prepared according to a standard method. Fresh umbilical veins are filled with a collagenase solution 0.1% by weight and incubated at 37° C. for 5 minutes.
The cells are collected from the perfusate by centrifugation at 800 rpm and harvested in culture flasks T-75, pretreated with human fibronectin. Cells are then harvested in the same medium, added with bovine hypothalamic growth factor (100 ng/ml). When the cells of the primary cell culture (the cells directly removed from ex-vivo umbilical vein) form a single layer of confluent cells (about 8,000,000 cells/flask), harvesting is stopped and the layers are washed and trypsinized. The cellular suspensions are transferred into wells of a culture plate having 24 wells, half of said wells being added with the same culture medium containing the drug at a 10^−4M concentration, and harvested in a thermostat at 37° C. at a constant moisture (90%), CO2=5%. When the drug is not soluble in the culture medium, it is formerly dissolved in a small amount of dimethylsulphoxide. The maximum amount of dimethylsulphoxide which can be added to the culture medium is 0.5%. Only the cells coming from these first subcultures are used for the tests with cumene hydroperoxide (CIP).
Before starting the test, the cellular culture medium is removed and the cellular layers are carefully washed with a standard physiologic solution buffered with phosphate 0.1 M pH 7.0, at the temperature of 37° C. The content of each well is then incubated for one hour with a CIP suspension in the culture medium at a 5 mM concentration. Evaluation of the cellular damage (apoptosis) is carried out by determining the percent variation of the DNA fragmentation in the cultures containing the drug+CIP with respect to the controls treated with CIP only. […] The fluorescence of each sample was determined on 5 replicates. Statistic evaluation has been made with t Student test (p<0.01).

Another data set concerns erythrocytes. The data set can be described thus: Test 4A: inhibition of erythrocyte haemolysis induced by cumene hydroperoxide. The settings on record: 2 mM; for % Haemolysis inhibition: preincubated 30 minutes, cumene hydroperoxide 270 μM, at Tmax.
In data set [4] the test system is acetic acid mouse writhing. The experiment in a line: Acetic acid mouse writhing. Type of data set: in vivo. How it is done: (§1) Antiinflammatory and analgesic activity have been measured according to carrageenan rat paw edema and acetic acid mouse writhing methods.
Experiments were conducted as described by Moore et al. (Br. J. Pharmacol. 102, 198-202 1990). The compounds were given orally 15 minutes prior to intraperitoneal acetic acid (2% w/v in saline pH 2.7, 10 ml/Kg). Mice were transferred immediately to individual observation cages and the number of abdominal constrictions monitored over the following 30 minutes. At the end of the observation period the animals were killed by cervical dislocation and exsanguination. Results are expressed as the number of abdominal constrictions (writhings) per 30 minutes test period, expressed as percentage to those observed in the control group, and are reported in Table IX.
Background: In writhing tests, fewer writhes than in controls are read as antinociception.

A further data set concerns liver. The data set can be described thus: Example F10: liver safety (AST, ALT, glutathione, bilirubin). Type of data set: in vivo, rat. The settings on record: rats, 6 hours; for AST %: i.p. (NO-paracetamol 1.4 g/Kg, paracetamol 1.16 g/Kg); for AST % / ALT % / Bilirubin % / Glutathione %: % of vehicle group; for ALT % / Bilirubin % / hepatic damage (in words) / Glutathione %: i.p.; for Glutathione %: liver glutathione. The method, then: After 6 hours the animals were killed by cervical dislocation, trunk blood collected and plasma analysed for aspartate aminotransferase (AST) and alanine aminotransferase (ALT) activity, liver glutathione and bilirubin concentration.

For data set [5], the system named is carrageenan rat paw edema. The data set can be described thus: Carrageenan rat paw edema. Type of data set: in vivo. The following applies: for Antiinflammatory activity % paw edema inhibition: rat, intraperitoneally prior to carrageenan, 3 h. How it is done:
as §1
Experiments were conducted as described by Al-Swayeh et al., Brit. J. Pharmacol. 129, 343-350 2000). Hind paw volume was determined by plethysmography before and after 3 h after interplantar carrageenan injection (100 microliter, 2% w/v). The compounds were given intraperitoneally […] prior to carrageenan injection. At the end of the experiment animals were killed by cervical dislocation and exsanguination. The Results shown in Table IX are expressed as % of paw edema inhibition, i.e. the paw volume of the controls (vehicle) subtracted of the paw volume of the treated and the obtained difference divided by the paw volume of the controls.
Background: Carrageenan injected into the paw causes an acute inflammation.

“Also recorded” adds a separate entry of the source. Read-outs that look alike come from different tables or passages of the source.

With `OCCCCO` [1,4-Butandiol], the “% Radical inhibition from Fe^II” value in data set [1] is reported as 0%.
Compound `NCCCC(O)(P(=O)(O)O)P(=O)(O)O` [Alendronate, sodic alendronate] displayed a Gastropathy % incidence in the data set on gastrointestinal mucosa of 100%. Also, the activity at 100000 µM in data set [2] came out at 18%. In data set [3], the “inhibition of apoptosis induced by CIP (in words, p<0.01)” value was “do not significantly inhibit apoptosis”.
For `OCCNCCO` [Diethanolamine], in the data set with erythrocytes, the “inhibition of haemolysis induced by cumene hydroperoxide (in words)” value was “does not inhibit haemolysis” and the “% Haemolysis inhibition” value was 2.5%.
As for `OCCOCCO` [Diethylenglycol], the “% Haemolysis inhibition” value with erythrocytes came out at 33.4%. The “% Radical inhibition from Fe^II” value in data set [1] (10^-4 M methanolic solution, 37° C. one hour, absorbance 532 nm) stood at 0%.
Consider `CC(=O)Nc1ccc(OC(=O)CCCO[N+](=O)[O-])cc1` [Example 1, 4-nitroxybutyric acid 4′-acetylamino phenyl ester], for which the “analgesic activity compared with paracetamol (in words)” value in data set [4] (acetic acid writhing) is given as “much more active in both tests than paracetamol”. In the data set on liver, this compound registered an AST % of 160%, an ALT % of 57%, a Bilirubin % of 136% and a Glutathione % of 49%. Also, the “hepatic damage (in words)” value in the data set with liver (listed as NO-paracetamol) was “much lower increases of AST and ALT; also recorded: the bilirubin concentration is lower than that in the control groups; also recorded: able to spare the liver”. The “antiinflammatory activity compared with paracetamol (in words)” value in data set [5] (carrageenan paw edema) is given as “much more active in both tests than paracetamol”. In addition, in data set [5], the “Antiinflammatory activity % paw edema inhibition” value is given as 69%.
Regarding `CC(=O)Nc1ccc(O)cc1` [Paracetamol, paracetamol], in data set [4] (mice, orally 15 minutes prior to intraperitoneal acetic acid, 30 minutes), the “Analgesic activity % writhing inhibition” value is given as 40%. Further, in the data set on liver, the AST % came to 330%, the “hepatic damage (in words)” value is listed as “causes hepatic damage”, the ALT % came to 171% and the Bilirubin % is 200%. Also, the Glutathione % in the data set with liver was determined as 52%. In addition, the “Antiinflammatory activity % paw edema inhibition” value in data set [5] came to 34%. Besides, the “inhibition of apoptosis induced by CIP (in words, p<0.01)” value in data set [3] is “do not significantly inhibit apoptosis; also recorded: not significantly different with respect to that of the controls”.

These data come from patent US7759392B2, “Pharmaceutical compounds” (Nicox S.A., priority 1999, dated 2010).
